Tests used:
[1] = target: T1, LnaB (Legionella pneumophila, UniProt Q5ZSJ0); assay: biochemical
T1 construct: gene lpg2527

[2] = target: T2, MavL40-404 (Legionella pneumophila, UniProt Q5ZSJ1)
T2 construct: gene lpg2526
T2 sequence (Q5ZSJ1 40-404 limits assumed): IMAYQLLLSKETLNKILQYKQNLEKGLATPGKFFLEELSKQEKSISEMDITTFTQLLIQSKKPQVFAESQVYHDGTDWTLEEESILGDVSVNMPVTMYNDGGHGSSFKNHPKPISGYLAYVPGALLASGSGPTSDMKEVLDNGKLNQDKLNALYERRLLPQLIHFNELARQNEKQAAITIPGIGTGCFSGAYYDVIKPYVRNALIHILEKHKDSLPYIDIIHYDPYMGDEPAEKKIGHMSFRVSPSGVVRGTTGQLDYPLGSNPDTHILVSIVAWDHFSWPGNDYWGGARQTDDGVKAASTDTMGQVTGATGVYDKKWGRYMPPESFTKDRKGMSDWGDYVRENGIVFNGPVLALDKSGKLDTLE

T1 sequence (Q5ZSJ0 1-558 limits assumed): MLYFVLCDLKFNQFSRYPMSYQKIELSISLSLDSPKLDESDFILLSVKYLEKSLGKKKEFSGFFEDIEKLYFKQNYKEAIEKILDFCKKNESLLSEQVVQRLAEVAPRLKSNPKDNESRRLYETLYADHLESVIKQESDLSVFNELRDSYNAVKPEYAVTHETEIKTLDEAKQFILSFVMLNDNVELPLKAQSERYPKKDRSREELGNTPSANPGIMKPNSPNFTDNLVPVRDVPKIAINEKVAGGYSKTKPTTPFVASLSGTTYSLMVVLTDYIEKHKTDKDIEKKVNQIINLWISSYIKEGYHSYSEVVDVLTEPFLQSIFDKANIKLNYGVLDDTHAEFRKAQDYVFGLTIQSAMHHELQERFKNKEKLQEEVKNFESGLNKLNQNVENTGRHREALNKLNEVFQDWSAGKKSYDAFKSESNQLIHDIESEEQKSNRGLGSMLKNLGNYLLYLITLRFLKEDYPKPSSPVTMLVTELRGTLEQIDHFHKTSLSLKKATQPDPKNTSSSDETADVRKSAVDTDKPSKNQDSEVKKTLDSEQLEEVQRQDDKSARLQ

Compound	Kd [1] [µM]	Kd [2] [µM]
Nc1ncnc2c1ncn2[C@@H]1O[C@H](COP(=O)(O)OP(=O)(O)OP(=O)(O)O)[C@@H](O)[C@H]1O [ATP]	15.4 ± 4.85	
Nc1ncnc2c1ncn2[C@@H]1O[C@H](COP(=O)(O)OP(=O)(O)OC[C@H]2OC(O)[C@H](O)[C@@H]2O)[C@@H](O)[C@H]1O (some centres unmarked) [ADPR]		25 ± 3.24

Source: PMC11251166 (Nature Communications, 2024)
